Structures can show the parent of a compound that is named as a salt.
Experiments:
hOAT = biological target: T1, hOAT (Homo sapiens, UniProt P04181); assay: Partition ratio experiment (titration of hOAT); format: biochemical
T1 construct: made in house; host or cells: E. coli BL21(DE3)
T1 sequence (P04181 26-439): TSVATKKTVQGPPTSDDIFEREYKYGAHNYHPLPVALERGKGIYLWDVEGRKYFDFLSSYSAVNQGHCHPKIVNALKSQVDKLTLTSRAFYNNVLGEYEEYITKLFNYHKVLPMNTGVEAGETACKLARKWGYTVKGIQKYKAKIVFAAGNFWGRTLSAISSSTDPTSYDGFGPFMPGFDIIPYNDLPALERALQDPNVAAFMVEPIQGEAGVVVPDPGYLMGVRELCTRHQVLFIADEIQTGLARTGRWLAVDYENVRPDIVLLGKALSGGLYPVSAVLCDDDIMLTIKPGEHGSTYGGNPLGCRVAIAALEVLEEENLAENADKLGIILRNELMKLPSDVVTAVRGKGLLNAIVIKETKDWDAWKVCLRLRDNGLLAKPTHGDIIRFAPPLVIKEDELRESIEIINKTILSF
Protocol: FIG. 9. Titration of hOAT with SS-1-148. The loss of enzyme activity was measured as a function of the ratio of […] to enzyme concentration. Linear regression was used on the linear portion of the curves to obtain the X-intercept, which was the turnover number (partition ratio=turnover number−1).
The partition ratio was calculated using previous protocols.^8-10

Asp-AT = biological target: T2, Asp-AT (Sus scrofa, UniProt P00503); assay: Inhibition of Asp-AT; format: biochemical, porcine
T2 construct: L-aspartate aminotransferase (Asp-AT) from the porcine heart; purchased Sigma-Aldrich G2751-2KU; host or cells: porcine heart
Protocol: All reagents for enzyme purification and assays were purchased from Sigma-Aldrich (St. Louis, MO, USA). […] All the enzyme assays for the inactivation, partition ratio, and dialysis experiment were recorded on a Synergy H1 hybrid multimode microplate reader (Biotek, USA) with transparent 96-well plates. […]
(§1) potassium phosphate at pH 7.4, 5.55 mM α-ketoglutarate, 1.11 mM NADH, 5.55 mM […], 5.55 units of malic dehydrogenase, and various concentrations of SS-1-148. […] The plate was shaken at room temperature for 1 min, and the absorbance was measured at 340 nm every 10 s for 90 min based on the conversion of NADH to NAD^+. The remaining Asp-AT activity percentage was calculated according to the corresponding concentrations. […]

Ala-AT = Ala-AT (Sus scrofa, UniProt P13191); assay: Inhibition of Ala-AT; format: biochemical, porcine; conditions: up to 10 mM
Protocol: All reagents for enzyme purification and assays were purchased from Sigma-Aldrich (St. Louis, MO, USA). […] All the enzyme assays for the inactivation, partition ratio, and dialysis experiment were recorded on a Synergy H1 hybrid multimode microplate reader (Biotek, USA) with transparent 96-well plates.
as §1

Aqueous solubility = format: physicochemical; conditions: aqueous medium (not further specified); HCl salt
[1] = Plasma protein binding, mouse; format: in vitro ADME
CYP 1A2 = biological target: T3, CYP 1A2 (Homo sapiens, UniProt P05177); assay: CYP inhibition 1A2; format: in vitro ADME
T3 sequence (P05177 1-516): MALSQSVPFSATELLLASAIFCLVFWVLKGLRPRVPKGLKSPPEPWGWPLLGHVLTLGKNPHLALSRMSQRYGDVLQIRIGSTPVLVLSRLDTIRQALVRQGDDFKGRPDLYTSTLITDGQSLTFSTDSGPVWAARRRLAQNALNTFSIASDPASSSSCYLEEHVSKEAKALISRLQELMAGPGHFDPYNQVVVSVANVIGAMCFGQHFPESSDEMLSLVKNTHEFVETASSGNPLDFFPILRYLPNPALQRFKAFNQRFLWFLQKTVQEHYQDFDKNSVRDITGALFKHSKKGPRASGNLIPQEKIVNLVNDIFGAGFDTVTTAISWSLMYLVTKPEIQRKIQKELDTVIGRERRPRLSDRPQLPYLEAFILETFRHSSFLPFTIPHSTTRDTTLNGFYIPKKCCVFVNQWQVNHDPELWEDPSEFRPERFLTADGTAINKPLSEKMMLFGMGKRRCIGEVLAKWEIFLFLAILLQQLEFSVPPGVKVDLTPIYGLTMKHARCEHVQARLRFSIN

CYP 2D6 = CYP 2D6 (Homo sapiens, UniProt P10635); assay: CYP inhibition 2D6; format: in vitro ADME
CYP 2D6, sequence (P10635 whole entry): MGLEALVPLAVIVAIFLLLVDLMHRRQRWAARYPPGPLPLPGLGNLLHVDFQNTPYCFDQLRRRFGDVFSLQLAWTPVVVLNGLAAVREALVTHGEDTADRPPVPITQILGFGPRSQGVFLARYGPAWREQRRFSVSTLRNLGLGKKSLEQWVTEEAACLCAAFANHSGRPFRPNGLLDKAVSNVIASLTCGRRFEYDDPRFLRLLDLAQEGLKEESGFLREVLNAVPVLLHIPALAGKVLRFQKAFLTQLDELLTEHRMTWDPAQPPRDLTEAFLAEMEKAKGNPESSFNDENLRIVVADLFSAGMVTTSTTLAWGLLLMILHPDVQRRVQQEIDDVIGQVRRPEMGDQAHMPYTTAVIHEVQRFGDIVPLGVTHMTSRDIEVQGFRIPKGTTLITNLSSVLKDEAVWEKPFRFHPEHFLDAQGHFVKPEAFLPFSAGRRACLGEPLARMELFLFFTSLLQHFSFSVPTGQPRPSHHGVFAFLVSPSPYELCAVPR

T2 sequence (P00503 2-413 limits assumed): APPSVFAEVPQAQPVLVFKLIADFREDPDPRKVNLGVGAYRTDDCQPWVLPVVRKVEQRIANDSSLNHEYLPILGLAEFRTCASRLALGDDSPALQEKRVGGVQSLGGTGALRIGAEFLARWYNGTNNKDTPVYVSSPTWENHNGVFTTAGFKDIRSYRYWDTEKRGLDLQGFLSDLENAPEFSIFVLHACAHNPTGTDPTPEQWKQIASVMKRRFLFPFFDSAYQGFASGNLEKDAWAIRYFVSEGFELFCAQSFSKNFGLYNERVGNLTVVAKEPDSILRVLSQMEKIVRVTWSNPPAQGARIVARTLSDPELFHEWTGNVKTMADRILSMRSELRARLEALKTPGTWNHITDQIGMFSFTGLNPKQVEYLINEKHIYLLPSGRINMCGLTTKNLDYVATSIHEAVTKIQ
Ala-AT, sequence (P13191 whole entry): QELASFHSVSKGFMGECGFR

N[C@H]1C=C(C(=O)O)CC1(F)F [SS-1-148, (S)-3-Amino-4,4-difluorocyclopent-1-enecarboxylic acid hydrochloric acid salt]
equivalents turned over per active site for each equivalent leading to inactivation (hOAT): 34.9 equivalents
Ki (Asp-AT; read-out: Off-target effects (Ki, mM) Asp-AT): > 20 mM
inhibition on Asp-AT (Asp-AT; up to 10 mM): did not show noticeable inhibition
inhibition on Ala-AT (Ala-AT): did not show noticeable inhibition
solubility (Aqueous solubility): > 50 mM
fraction unbound [1]: 1
IC50 (CYP 1A2): > 100 µM
IC50 (CYP 2D6): > 100 µM
